# Experimental data from patent publication US8114904B2, “Luminescence quenchers and fluorogenic probes for detection of reactive species” (Versitech Limited & Morningside Ventures Limited, priority 2008, dated 2012).
# Assays:
# [1] = Detection of peroxynitrite: fluorescence spectra after addition of peroxynitrite
# Method: Compound 10 obtained in Example 4 was dissolved in DMF to a concentration of 10 mM, and then the solution was diluted to 10μM by 0.1 M potassium phosphate buffer (pH 7.4). Peroxynitrite solution in 0.1 M NaOH was prepared by the method of Keith and Powell (Keith, W. G. & Powell, R. E.; Kinetics of decomposition of peroxynitrous acid; J. Chem. Soc. A, 1969, 1, 90), and its concentration in the stock solutions used was estimated by using an extinction coefficient of 1670 cm^−1 (mol/L)^−1 at 302 nm (Hughes and Nicklin; The chemistry of pernitrites. Part I. Kinetics of decomposition of pernitrious acid; J. Chem. Soc. A, 1968, 2, 450-452). Peroxynitrite stock solution was added into the solution of Compound 10 to provide various final concentrations, like 0, 2, 6, 10, 20, 30, 50 100, and 200 μM. Fluorescence spectra of the solutions were measured after 5 minutes under the same conditions as mentioned above.
# Compound 12 obtained in Example 5 was dissolved in DMF to a concentration of 1 mM, and then the solution was diluted to 1 μM by 0.1 M potassium phosphate buffer (pH 7.4). Peroxynitrite solution in 0.1 M NaOH was prepared by the method of Keith and Powell (Keith, W. G. & Powell, R. E.; Kinetics of decomposition of peroxynitrous acid; J. Chem. Soc. A, 1969, 1, 90), and its concentration in the stock solutions used was estimated by using an extinction coefficient of 1670 cm^−1 (mol/L)^−1 at 302 nm (Hughes and Nicklin; The chemistry of pernitrites. Part I. Kinetics of decomposition of pernitrious acid; J. Chem. Soc. A, 1968, 2, 450-452). Peroxynitrite stock solution was added into the solution of Compound 12 to provide various final concentrations, like 0, 1, 2, 3, 4, 5, 6, and 7 μM. Fluorescence spectra of the solutions were measured after 5 minutes under the same conditions as mentioned above.
# Compound 30 obtained in Example 7 was dissolved in DMF to a concentration of 10 mM, and then the solution was diluted to 10 μM by 0.1 M potassium phosphate buffer (pH 7.4). Peroxynitrite solution in 0.1 M NaOH was prepared by the method of Keith and Powell (Keith, W. G. & Powell, R. E.; Kinetics of decomposition of peroxynitrous acid; J. Chem. Soc. A, 1969, 1, 90), and its concentration in the stock solutions used was estimated by using an extinction coefficient of 1670 cm^−1 (mol/L)^−1 at 302 nm (Hughes and Nicklin; The chemistry of pernitrites. Part I. Kinetics of decomposition of pernitrious acid; J. Chem. Soc. A, 1968, 2, 450-452). Peroxynitrite stock solution was added into the solution of Compound 30 to provide various final concentrations. Fluorescence spectra of the solutions were measured after 5 minutes under the same conditions as mentioned above.
# [2] = UV-visible absorption spectrum; format: physicochemical; details: pH 7.4 0.1 M phosphate buffer, 0.1% DMF
# Method: Compound 10 obtained in Example 4 was dissolved in pH 7.4 0.1 M phosphate buffer containing 0.1% DMF as cosolvent to form a 10 μM solution.
# Compound 12 obtained in Example 5 was dissolved in pH 7.4 0.1 M phosphate buffer containing 0.1% DMF as cosolvent to form a 1 μM solution.
# Compound 14 obtained in Example 6 was dissolved in pH 7.4 0.1 M phosphate buffer containing 0.1% DMF as cosolvent to form a 1 μM solution.
# Compound 30 obtained in Example 7 was dissolved in pH 7.4 0.1 M phosphate buffer containing 0.1% DMF as cosolvent to form a 10 μM solution. The absorption spectrum of the 10 μM solution of Compound 30 was measured.
absorption maximum ([2]; 10 μM solution),absorption maximum ([2]; 1 μM solution),Structure (SMILES),"fluorescence intensity at 541 nm with increasing concentration of peroxynitrite ([1]; 10 μM probe, 0.1 M potassium phosphate buffer pH 7.4)","fluorescence intensity after the addition of peroxynitrite ([1]; 10 μM probe, 0.1 M potassium phosphate buffer pH 7.4, measured after 5 minutes, excitation 520 nm)","fluorescence intensity at 535 nm with increasing concentration of peroxynitrite ([1]; 1 μM probe, 0.1 M potassium phosphate buffer pH 7.4, data not shown)","fluorescence intensity after the addition of peroxynitrite ([1]; 1 μM probe, peroxynitrite 0-7 μM, 0.1 M potassium phosphate buffer pH 7.4, after 5 minutes, excitation 515 nm)"
about 520 nm,–,CN(c1ccc(CCC(=O)C(F)(F)F)cc1)c1cc2c(cc1Cl)C1(OC(=O)c3ccccc31)c1cc(Cl)c(O)cc1O2 (stereo not drawn) [Compound 10],increases linearly,increase significantly,–,–
–,about 515 nm,CN(c1ccc(O)cc1)c1ccc2c(c1)Oc1cc(O)ccc1C21OC(=O)c2ccccc21 (stereo not drawn) [Compound 12],–,–,increases linearly,increase significantly
